Data set [1] deals with MCF7. The data set is described as follows: Cytotoxicity against human MCF7 cells at 10 uM after 48 hrs. Type of data set: functional.
Data set [2] concerns NCI-H460. The data set is described as follows: Cytotoxicity against human NCI-H460 cells at 10 uM after 48 hrs. In kind it is functional.
The test system of data set [3] is HT-29. The data set is described as follows: Cytotoxicity against human HT-29 cells at 10 uM after 48 hrs. In kind it is functional.
In data set [4] the test system is CCRF-CEM. Briefly: Cytotoxicity against human CEM cells at 10 uM after 48 hrs. In kind it is functional.
A short description of data set [5]: Cytotoxicity against human fibroblast cells at 10 uM after 48 hrs. Type of data set: cell-based.
The test system of data set [6] is MCF7. The data set is described as follows: Cytotoxicity against human MCF7 cells after 48 hrs. The conditions noted are these: MCF7, 48 h. In kind it is functional, cell-based.
In data set [7] the test system is NCI-H460. The data set is described as follows: Cytotoxicity against human NCI-H460 cells after 48 hrs. Type of data set: functional, cell-based. To be noted: NCI-H460, 48 h.
Data set [8] has as its system HT-29. The data set is described as follows: Cytotoxicity against human HT-29 cells after 48 hrs. Type of data set: functional, cell-based. The conditions noted are these: HT-29, 48 h.
Data set [9] concerns CCRF-CEM. The data set is described as follows: Cytotoxicity against human CEM cells after 48 hrs. In kind it is functional, cell-based.

Consider `C[C@@H]1CC[C@]2(C(=O)O)CC[C@]3(C)C(=CC[C@@H]4[C@@]5(C)C[C@H](O)[C@H](O)C(C)(C)[C@@H]5CC[C@]43C)[C@@H]2[C@]1(C)O`, for which the Activity is reported as 70% in [1]; 78% in data set [2]; 74% in data set [3]; 73% in data set [4]; 107% in data set [5].

`C[C@@H]1CC[C@]2(C(=O)O)CC[C@]3(C)C(=CC[C@@H]4[C@@]5(C)CC[C@H](O)[C@@](C)(C=O)[C@@H]5CC[C@]43C)[C@@H]2[C@]1(C)O`: the Activity in [1] is 93%; in data set [2], 103%; in [3], 91%; in data set [4], 88%; in data set [5], 99%.

A word on the IC50: it is the concentration that gives 50% inhibition. With `C[C@H]1[C@H](C)CC[C@]2(C(=O)O)CC[C@]3(C)C(=CC[C@@H]4[C@@]5(C)C[C@@H](O)[C@H](O)C(C)(C)[C@@H]5CC[C@]43C)[C@H]12` [COROSOLIC ACID], the Activity in data set [1] came to 75%; in [2], 89%; in data set [3] it was 68%; in data set [4], 33%; in data set [5], 109%. In addition, the IC50 in data set [6] was more than 10 µM; in data set [7] it was more than 10 µM; in data set [8] it was more than 10 µM; in [9], 3.27 µM.

`COc1cccc2c1C(=O)c1c(O)c3c(c(O)c1C2=O)C[C@@](O)(C(=O)CO)C[C@@H]3O[C@H]1C[C@H](N)[C@H](O)[C@H](C)O1` [DOXORUBICIN]: the figures for the IC50 in [7], in [8] and in data set [9] were 6.06 µM, 6.4 µM and 3.14 µM, respectively.

For `C[C@@H]1CC[C@]2(C(=O)O)CC[C@]34C[C@]3(C=C[C@@H]3[C@@]5(C)CC[C@H](O)C(C)(C)[C@@H]5CC[C@]34C)[C@@H]2[C@]1(C)O` [EUSCAPHIC ACID A], the Activity is 85% in data set [1]; 62% in data set [2]; 87% in data set [3]; 83% in data set [4]; 100% in data set [5].

Consider `C[C@@H]1CC[C@]2(C(=O)O)CC[C@]34C[C@]3(C=C[C@@H]3[C@@]5(C)CC[C@H](O)[C@@](C)(CO)[C@@H]5CC[C@]34C)[C@@H]2[C@]1(C)O` [EUSCAPHIC ACID B], for which the Activity in data set [1] worked out at 84%; in [2] it was 99%; in [3], 93%; in data set [4], 80%; in data set [5] it was 109%.

For `C[C@@H]1CC[C@]2(C(=O)O)CC[C@]34C[C@]3(C=C[C@@H]3[C@@]5(C)C[C@@H](O)[C@@H](O)C(C)(C)[C@@H]5CC[C@]34C)[C@@H]2[C@]1(C)O` [EUSCAPHIC ACID C], the Activity in data set [1] was determined as 10%; in data set [2], 6%; in data set [3], 1%; in data set [4], 19%; in data set [5], 119%. The IC50 in data set [6] came out at 15.7 µM; in data set [7], 2.54 µM; in [8] it was 14.3 µM; in data set [9] it was 65.3 µM.

Turning to `C[C@@H]1CC[C@]2(C(=O)O)CC[C@]34C[C@]3(C=C[C@@H]3[C@@]5(C)C[C@@H](O)[C@H](O)C(C)(C)[C@@H]5CC[C@]34C)[C@@H]2[C@]1(C)O` [EUSCAPHIC ACID D], the Activity in [1] amounted to 41%; in [2], 24%; in data set [3], 13%; in [4], 55%; in data set [5], 111%. Moreover, the IC50 was determined as 3.61 µM in [6], 13.3 µM in data set [7], 34.8 µM in [8] and 8.99 µM in [9].

Regarding `C[C@H]1[C@H](C)CC[C@]2(C(=O)O)CC[C@]34C[C@]3(C=C[C@@H]3[C@@]5(C)C[C@@H](O)[C@H](O)C(C)(C)[C@@H]5CC[C@]34C)[C@H]12` [EUSCAPHIC ACID E], the Activity in data set [1] is recorded as 90%; in data set [2], 91%; in data set [3], 86%; in [4] it was 87%; in [5] it was 110%.

As to `C=C1[C@H](C)CC[C@]2(C(=O)O)CC[C@]34C[C@]3(C=C[C@@H]3[C@@]5(C)C[C@@H](O)[C@H](O)C(C)(C)[C@@H]5CC[C@]34C)[C@H]12` [EUSCAPHIC ACID F], the Activity in data set [1] is 76%; in data set [2], 81%; in data set [3] it was 87%; in data set [4], 86%; in [5], 115%.

For `C[C@@H]1CC[C@]2(C(=O)O)CC[C@]3(C)C(=CC[C@@H]4[C@@]5(C)C[C@@H](O)[C@@H](O)C(C)(C)[C@@H]5CC[C@]43C)[C@@H]2[C@]1(C)O` [EUSCAPHIC ACID], the Activity in data set [1] is 85%; in data set [2] it was 104%; in data set [3], 85%; in [4], 89%; in [5], 95%.

Regarding `C[C@@H]1CC[C@]2(C(=O)O)CC[C@]3(C)C(=CC[C@@H]4[C@@]5(C)CC[C@H](O)C(C)(C)[C@@H]5CC[C@]43C)[C@@H]2[C@]1(C)O` [POMOLIC ACID], the Activity in data set [1] amounted to 79%; in [2] it was 82%; in data set [3], 91%; in data set [4], 92%; in data set [5], 93%.

Take `C[C@@H]1CC[C@]2(C(=O)O)CC[C@]3(C)C(=CC[C@@H]4[C@@]5(C)CC[C@H](O)[C@@](C)(CO)[C@@H]5CC[C@]43C)[C@@H]2[C@]1(C)O` [ROTUNDIC ACID]: the Activity is listed as 78% in [1]; 85% in [2]; 101% in data set [3]; 106% in data set [4]; 92% in data set [5].

On to `C[C@@H]1CC[C@]2(C(=O)O)CC[C@]3(C)C(=CC[C@@H]4[C@@]5(C)CC[C@H](O)[C@](C)(CO)[C@@H]5CC[C@]43C)[C@@H]2[C@]1(C)O` [ROTUNGENIC ACID], for which the Activity in [1] is reported as 98%; in data set [2] it was 106%; in [3], 91%; in data set [4] it was 97%; in [5], 99%.

As for `C[C@@H]1CC[C@]2(C(=O)O)CC[C@]3(C)C(=CC[C@@H]4[C@@]5(C)C[C@@H](O)[C@H](O)C(C)(C)[C@@H]5CC[C@]43C)[C@@H]2[C@]1(C)O` [TOMENTIC ACID], the Activity in [1] was 85%; in data set [2], 88%; in data set [3], 86%; in data set [4], 93%; in data set [5], 114%.

Values taken from ChEMBL document CHEMBL1268858, “Cytotoxic Hexacyclic Triterpene Acids from Euscaphis japonica” (J Nat Prod, 2010).
